System: moderate-to-severe chronic spontaneous urticaria (CSU)
Assay: Phase 2 CSU study: hives severity score over 7 days (HSS7)
Format: in vivo, human
Set-up: key to HSS7 Change from baseline, Median / HSS7, Median / HSS7, Max / HSS7 Change from baseline, Q1 / HSS7 Change from baseline, Q3 / HSS7 Change from baseline, Max: 7-day sum of daily hive scores, each 0 = none to 3 = >50 hives
Details: for median reduction in HSS7 at Week 12: omalizumab-naïve population; for HSS7, Mean (SD) / HSS7, Median: End of Study; for HSS7 change from baseline at Week 12, LS Mean / HSS7 change from baseline at Week 12, LS Mean Diff vs. placebo: ANCOVA
Source text: The study comprises a 12 week, randomized, double-blind, placebo-controlled, multi-center, dose-ranging efficacy and safety phase, followed by a 40 week open label extension (OLE) phase (see FIG. 1).
The study consists of three phases and an optional OLE phase.
The UAS is a validated PRO measure. The daily UAS is the sum of the daily Hive Severity Score (HSS, ranging from 0=None to 3=more than 50 hives) and the daily Itch Severity Score (ISS, ranging from 0=None to 3=intense), the 2 key urticaria signs and symptoms which are wheals and itch. The daily UAS scores range from 0 to 6 point/day. Daily UAS scores are summed over 7-day period to create the UAS7, ranging from 0 to 42, and are composed of the HSS7 and ISS7 components. […] Patients were to complete the UAS using the e-diary. The e-diary was to be used once daily on the same time of each day recording of participant's answers to the urticaria activity score over 7 days (UAS7) questionnaire. For participants who entered the OLE phase, their answers to the UAS7 questionnaire were also to be collected from Week 20 to Week24 and from Week 48 to Week 52.
The following secondary endpoints were to be analyzed using the same approach as for the primary endpoint: • Change from baseline in UAS7 at Week 4 • Change from baseline in UAS7 at Week 12 (for US and US reference countries) • Change from baseline in ISS7 at Week 12 (except US and US reference countries) • Change from baseline in HSS7 at Week 12

[1] = 400 mg TID, Week 9, ITT Population
[2] = 400 mg TID, Week 9, Omalizumab-Naïve Population
[3] = 400 mg TID, Week 10, ITT Population
[4] = 400 mg TID, Week 11, ITT Population
[5] = 400 mg TID, Week 12, ITT population
[6] = 400 mg TID, patients with prior omalizumab use, last block under Week 12, double-blind period, WOCF imputation
[7] = 400 mg BID, Omalizumab-Naïve Population
[8] = 400 mg QPM, Omalizumab-Naïve Population
[9] = 400 mg TID, Patients with Prior Omalizumab Use
[10] = Omalizumab-Naïve Population with Outlier Removed from Analysis, 400 mg BID
[11] = Omalizumab-Naïve Population with Outlier Removed from Analysis, 400 mg QPM
[12] = Omalizumab-Naïve Population with Outlier Removed from Analysis, 400 mg TID
[13] = Omalizumab-naïve Population, 400 mg BID
[14] = Omalizumab-naïve Population, 400 mg QPM
[15] = Omalizumab-naïve Population, 400 mg TID

CC(C)(C=C(C#N)C(=O)N1CCC[C@@H](n2nc(-c3ccc(Oc4ccccc4)cc3F)c3c(N)ncnc32)C1)N1CCN(C2COC2)CC1 [rilzabrutinib, (R)-2-[3-[4-amino-3-(2-fluoro-4-phenoxy-phenyl)pyrazolo[3,4-d]pyrimidin-1-yl]piperidine-1-carbonyl]-4-methyl-4-[4-(oxetan-3-yl)piperazin-1-yl]pent-2-enenitrile]
HSS7 Postbaseline Mean (SD) (400 mg TID, Week 8, Omalizumab-Naïve Population): 6.12 (4.80)
HSS7 Postbaseline Mean (SD) (400 mg TID, Week 8, Omalizumab-Naïve Population with Outlier Removed from Analysis): 6.12 (4.80)
HSS7 % Change difference for rilzabrutinib vs.placebo LS Mean (95% CI) [1]: −29.14 %
HSS7 % Change from baseline LS Mean (SE) [1]: −53.06 (6.70) %
HSS7 Change difference for rilzabrutinib vs.placebo LS Mean (95% CI) [1]: −3.67 (−6.21, −1.13)
HSS7 Change from baseline LS Mean (SE) [1]: −7.79 (0.94)
HSS7 Postbaseline Mean (SD) [1]: 5.43 (4.93)
HSS7 % Change difference for rilzabrutinib vs.placebo LS Mean (95% CI) [2]: −27.94 %
HSS7 Postbaseline Mean (SD) [2]: 5.88 (4.98)
HSS7 Postbaseline Mean (SD) (400 mg TID, Week 9, Omalizumab-Naïve Population with Outlier Removed from Analysis): 5.88 (4.98)
HSS7 % Change difference for rilzabrutinib vs.placebo LS Mean (95% CI) [3]: −28.54 %
HSS7 % Change from baseline LS Mean (SE) [3]: −56.54 (6.68) %
HSS7 Change difference for rilzabrutinib vs.placebo LS Mean (95% CI) [3]: −3.55 (−6.13, −0.97)
HSS7 Change from baseline LS Mean (SE) [3]: −8.15 (0.96)
HSS7 Postbaseline Mean (SD) [3]: 5.39 (5.05)
HSS7 Postbaseline Mean (SD) (400 mg TID, Week 10, Omalizumab-Naïve Population): 5.87 (5.06)
HSS7 Postbaseline Mean (SD) (400 mg TID, Week 10, Omalizumab-Naïve Population with Outlier Removed from Analysis): 5.87 (5.06)
HSS7 % Change difference for rilzabrutinib vs.placebo LS Mean (95% CI) [4]: −28.42 %
HSS7 % Change from baseline LS Mean (SE) [4]: −54.96 (6.95) %
HSS7 Change difference for rilzabrutinib vs.placebo LS Mean (95% CI) [4]: −3.55 (−6.14, −0.95)
HSS7 Change from baseline LS Mean (SE) [4]: −8.09 (0.96)
HSS7 Postbaseline Mean (SD) [4]: 5.60 (5.41)
HSS7 Postbaseline Mean (SD) (400 mg TID, Week 11, Omalizumab-Naïve Population): 6.17 (5.40)
HSS7 Postbaseline Mean (SD) (400 mg TID, Week 11, Omalizumab-Naïve Population with Outlier Removed from Analysis): 6.17 (5.40)
HSS7 % Change difference for rilzabrutinib vs.placebo LS Mean (95% CI) [5]: −29.54 %
HSS7 % Change from baseline LS Mean (SE) [5]: −57.27 (7.06) %
HSS7 Change difference for rilzabrutinib vs.placebo LS Mean (95% CI) [5]: −3.42 (−6.11, −0.74)
HSS7 Change from baseline LS Mean (SE) [5]: −8.31 (1.00)
HSS7 Postbaseline Mean (SD) [5]: 4.92 (4.89)
HSS7 Postbaseline Mean (SD) (400 mg TID, Week 12, Omalizumab-Naïve Population): 5.23 (4.86)
HSS7 Postbaseline Mean (SD) (400 mg TID, Week 12, Omalizumab-Naïve Population with Outlier Removed from Analysis): 5.23 (4.86)
median reduction in HSS7 at Week 12 (400 mg TID): −7.64
median reduction in HSS7 at Week 12 (400 mg TID, outlier removed): −7.89
HSS7, Max [6]: 8.2
HSS7, Min [6]: 4.0
HSS7 Change from baseline, Max [6]: 0.0
HSS7 Change from baseline, Mean (SD) [6]: −2.00 (2.83)
HSS7 Change from baseline, Median [6]: −2.00
HSS7 Change from baseline, Min [6]: −4.0
HSS7 Change from baseline, Q1 [6]: −4.00
HSS7 Change from baseline, Q3 [6]: 0.00
HSS7 Percent change from baseline, Max [6]: 0.0%
HSS7 Percent change from baseline, Mean (SD) [6]: −25.00 (35.36) percent
HSS7 Percent change from baseline, Median [6]: −25.00%
HSS7 Percent change from baseline, Min [6]: −50.0%
HSS7 Percent change from baseline, Q1 [6]: −50.00%
HSS7 Percent change from baseline, Q3 [6]: 0.00%
HSS7, Mean (SD) [7]: 7.80 (8.76)
HSS7, Median [7]: 7.00
HSS7, Mean (SD) [8]: 6.13 (9.09)
HSS7, Median [8]: 1.40
HSS7, Mean (SD) (400 mg TID, Omalizumab-Naïve Population): 10.00 (5.79)
HSS7, Mean (SD) [9]: 6.08 (2.95)
HSS7, Median [9]: 6.08
HSS7 at Week 12, Mean (ITT Population, 400 mg BID): 7.08
HSS7 at Week 12, Median (ITT Population, 400 mg BID): 6.00
HSS7 change from baseline at Week 12, Mean (ITT Population, 400 mg BID): −7.81
HSS7 change from baseline at Week 12, Median (ITT Population, 400 mg BID): −5.30
HSS7 change from baseline at Week 12, LS Mean (ITT Population, 400 mg BID): −6.78
HSS7 change from baseline at Week 12, LS Mean Diff vs. placebo (ITT Population, 400 mg BID): −1.89
HSS7 at Week 12, Median (ITT Population, 400 mg QPM): 8.75
HSS7 change from baseline at Week 12, Mean (ITT Population, 400 mg QPM): −5.05
HSS7 change from baseline at Week 12, Median (ITT Population, 400 mg QPM): −4.00
HSS7 change from baseline at Week 12, LS Mean (ITT Population, 400 mg QPM): −4.75
HSS7 change from baseline at Week 12, LS Mean Diff vs. placebo (ITT Population, 400 mg QPM): 0.14
HSS7 at Week 12, Mean (ITT Population, 400 mg TID): 4.92
HSS7 at Week 12, Median (ITT Population, 400 mg TID): 3.50
HSS7 change from baseline at Week 12, Mean (ITT Population, 400 mg TID): −9.62
HSS7 change from baseline at Week 12, Median (ITT Population, 400 mg TID): −9.00
HSS7 change from baseline at Week 12, LS Mean (ITT Population, 400 mg TID): −8.31
HSS7 change from baseline at Week 12, LS Mean Diff vs. placebo (ITT Population, 400 mg TID): −3.42
HSS7 at Week 12, Mean [10]: 7.52
HSS7 at Week 12, Median [10]: 7.00
HSS7 change from baseline at Week 12, Mean [10]: −7.09
HSS7 change from baseline at Week 12, Median [10]: −4.50
HSS7 change from baseline at Week 12, LS Mean [10]: −6.56
HSS7 change from baseline at Week 12, LS Mean Diff vs. placebo [10]: −2.20
HSS7 at Week 12, Median [11]: 8.58
HSS7 change from baseline at Week 12, Mean [11]: −4.85
HSS7 change from baseline at Week 12, Median [11]: −4.00
HSS7 change from baseline at Week 12, LS Mean [11]: −4.57
HSS7 change from baseline at Week 12, LS Mean Diff vs. placebo [11]: −0.22
HSS7 at Week 12, Mean [12]: 5.23
HSS7 at Week 12, Median [12]: 4.08
HSS7 change from baseline at Week 12, Mean [12]: −8.77
HSS7 change from baseline at Week 12, Median [12]: −8.00
HSS7 change from baseline at Week 12, LS Mean [12]: −7.89
HSS7 change from baseline at Week 12, LS Mean Diff vs. placebo [12]: −3.54
HSS7 at Week 12, Mean [13]: 7.52
HSS7 at Week 12, Median [13]: 7.00
HSS7 change from baseline at Week 12, Mean [13]: −7.09
HSS7 change from baseline at Week 12, Median [13]: −4.50
HSS7 change from baseline at Week 12, LS Mean [13]: −6.52
HSS7 change from baseline at Week 12, LS Mean Diff vs. placebo [13]: −2.12
HSS7 at Week 12, Median [14]: 8.58
HSS7 change from baseline at Week 12, Mean [14]: −4.85
HSS7 change from baseline at Week 12, Median [14]: −4.00
HSS7 change from baseline at Week 12, LS Mean [14]: −4.49
HSS7 change from baseline at Week 12, LS Mean Diff vs. placebo [14]: −0.09
HSS7 at Week 12, Mean [15]: 5.23
HSS7 at Week 12, Median [15]: 4.08
HSS7 change from baseline at Week 12, Mean [15]: −8.77
HSS7 change from baseline at Week 12, Median [15]: −8.00
HSS7 change from baseline at Week 12, LS Mean [15]: −7.64
